Results: US20050239656A1, “Pyridine compounds or salts thereof and herbicides containing the same” (priority 2002, published 2005)

Columns and labels:
redroot pigweed [1] = assay: Test Example 1: foliage treatment, upland pot test; format: in vivo, Amaranthus retroflexus L.; details: active ingredient 500 g/ha, observed 18th to 23rd day, 0 = non-treated, 100 = complete kill
Text: (§1) Upland field soil was put into a 1/170,000 ha pot, and seed of various plants were sown. Then, when the plants reached predetermined leaf stages ((1) barnyardgrass: 1.3 to 2.8 leaf stages, (2) crabgrass: 1.0 to 2.8 leaf stages, (3) green foxtail: 1.3 to 2.6 leaf stages, (4) redroot pigweed: 0.1 to 1.2 leaf stages, (5) prickly sida: 0.1 to 1.2 leaf stages, (6) velvetleaf: 0.1 to 1.2 leaf stages, (7) tall morningglory: 0.1 to 1.5 leaf stages, (8) rice: 1.2 to 2.6 leaf stages, (9) wheat: 1.3 to 2.4 leaf stages, (10) corn, 2.1 to 3.2 leaf stages, (11) soybean: 0.1 to 0.4 leaf stage), a wettable powder or emulsifiable concentrate having the compound of the present invention formulated in accordance with a usual formulation method, was weighed so that the active ingredient would be a predetermined amount, and diluted with water in an amount of 500 L/ha. To the diluted solution, 0.1% (v/v) of agricultural spreader was added. The herbicide thus adjusted was applied by a small size sprayer for foliage treatment. On the 18th to 23rd days after the application of the herbicide, the growth of the respective plants was visually observed, and the herbicidal effects were evaluated by the growth controlling degrees (%) ranging from 0 (equivalent to the non-treated plot) to 100 (complete kill), whereby the results shown in Table 3, were obtained.

rice [2] = assay: Test Example 1: foliage treatment, upland pot test; format: in vivo, Oryza sativa L.; details: crop, active ingredient 500 g/ha, observed 18th to 23rd day, 0 = non-treated, 100 = complete kill
Text: as §1

rice (var. Nihonbare) = assay: Test Example 3: paddy pot test, transplanted rice; format: in vivo, Oryza sativa L.; details: applied 4th day after transplantation, visually observed 21st day after application, 0 = non-treated, 100 = complete kill
Method in brief: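 Rice (2-leaf stage) was transplanted 3 cm deep into puddled, leveled paddy soil under 3–4 cm flooding. On day 4 after transplanting, diluted wettable powder or emulsifiable concentrate was pipetted onto the water at a predetermined active-ingredient dose. Growth control (0 = untreated, 100 = complete kill) was scored visually 21 days later.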

green foxtail [3] = assay: Test Example 1: foliage treatment, upland pot test; format: in vivo, Setaria viridis L.; details: active ingredient 500 g/ha, observed 18th to 23rd day, 0 = non-treated, 100 = complete kill
Text: as §1

barnyardgrass [4] = assay: Test Example 1: foliage treatment, upland pot test; format: in vivo, Echinochloa crus-galli L.; details: active ingredient 500 g/ha, observed 18th to 23rd day, 0 = non-treated, 100 = complete kill
Text: as §1

japanese ribbon wapato = assay: Test Example 3: paddy pot test, application under submerged conditions; format: in vivo, Sagittaria pygniaea; details: submerged application at primary leaf stage, visually observed 14 days after application, 0 = non-treated, 100 = complete kill
Method in brief: (§2)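 After sowing seeds and planting wapato tubers in flooded paddy soil, an aqueous dilution of the formulated compound was added to the 3–4 cm flood water at early leaf stage. Percent growth control relative to the untreated plot was assessed visually on day 14.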

soybean [5] = assay: Test Example 1: foliage treatment, upland pot test; format: in vivo, Glycine max Merr.; details: crop, active ingredient 500 g/ha, observed 18th to 23rd day, 0 = non-treated, 100 = complete kill
Text: as §1

japanese bulrush = assay: Test Example 3: paddy pot test, application under submerged conditions; format: in vivo, Scirpus juncoides; details: submerged application at 0.5 leaf stage, visually observed 14 days after application, 0 = non-treated, 100 = complete kill
Method in brief: as §2

corn [6] = assay: Test Example 1: foliage treatment, upland pot test; format: in vivo, Zea mays L.; details: crop, active ingredient 500 g/ha, observed 18th to 23rd day, 0 = non-treated, 100 = complete kill
Text: as §1

velvetleaf [7] = assay: Test Example 1: foliage treatment, upland pot test; format: in vivo, Abutilon theophrasti MEDIC.; details: active ingredient 500 g/ha, observed 18th to 23rd day, 0 = non-treated, 100 = complete kill
Text: as §1

barnyardgrass [8] = assay: Test Example 3: paddy pot test, application under submerged conditions; format: in vivo, Echinochloa crus-galli L.; details: submerged application at 0.5 leaf stage, visually observed 14 days after application, 0 = non-treated, 100 = complete kill
Method in brief: as §2

crabgrass [9] = assay: Test Example 1: foliage treatment, upland pot test; format: in vivo, Digitaria sanguinalis L.; details: active ingredient 500 g/ha, observed 18th to 23rd day, 0 = non-treated, 100 = complete kill
Text: as §1

prickly sida [10] = assay: Test Example 1: foliage treatment, upland pot test; format: in vivo, Sida spinosa L.; details: active ingredient 500 g/ha, observed 18th to 23rd day, 0 = non-treated, 100 = complete kill
Text: as §1

rice [11] = assay: Test Example 2: soil surface treatment, upland pot test; format: in vivo, Oryza sativa L.; details: active ingredient 500 g/ha, observed 20th to 28th day
Method in brief: (§3)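 Herbicidal effect is given as percent growth control, assessed by eye 20 to 28 days post-spray against untreated plants (0) and full kill (100). Treatment: soil-surface application one day after sowing, formulated product diluted in 1,500 L/ha water, upland soil, 1/170,000 ha pots.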

barnyardgrass [12] = assay: as above; format: in vivo, Echinochloa crus-galli L.; details: active ingredient 500 g/ha, observed 20th to 28th day
Method in brief: as §3

redroot pigweed [13] = assay: as above; format: in vivo, Amaranthus retroflexus L.; details: active ingredient 500 g/ha, observed 20th to 28th day
Method in brief: as §3

green foxtail [14] = assay: as above; format: in vivo, Setaria viridis L.; details: active ingredient 500 g/ha, observed 20th to 28th day
Method in brief: as §3

prickly sida [15] = assay: as above; format: in vivo, Sida spinosa L.; details: active ingredient 500 g/ha, observed 20th to 28th day
Method in brief: as §3

corn [16] = assay: as above; format: in vivo, Zea mays L.; details: active ingredient 500 g/ha, observed 20th to 28th day
Method in brief: as §3

soybean [17] = assay: as above; format: in vivo, Glycine max Merr.; details: active ingredient 500 g/ha, observed 20th to 28th day
Method in brief: as §3

crabgrass [18] = assay: as above; format: in vivo, Digitaria sanguinalis L.; details: active ingredient 500 g/ha, observed 20th to 28th day
Method in brief: as §3

velvetleaf [19] = assay: as above; format: in vivo, Abutilon theophrasti MEDIC.; details: active ingredient 500 g/ha, observed 20th to 28th day
Method in brief: as §3

SMILES | Growth controlling degree (%) Redroot pigweed (redroot pigweed [1]) | Growth controlling degree (%) Rice (rice [2]) | Growth controlling degree (%) Green foxtail (green foxtail [3]) | Growth controlling degree (%) Barnyardgrass (barnyardgrass [4]) | Growth controlling degree (%) Soybean (soybean [5]) | Growth controlling degree (%) Corn (corn [6]) | Growth controlling degree (%) Velvetleaf (velvetleaf [7]) | Growth controlling degree (%) Crabgrass (crabgrass [9]) | Growth controlling degree (%) Prickly sida (prickly sida [10]) | Growth controlling degree (%) Rice (rice [11]) | Growth controlling degree (%) Barnyardgrass (barnyardgrass [12]) | Growth controlling degree (%) Rice (rice (var. Nihonbare); active ingredient 250 g/ha) | Growth controlling degree (%) Green foxtail (green foxtail [14]) | Growth controlling degree (%) Corn (corn [16]) | Growth controlling degree (%) Soyabean (soybean [17]) | Growth controlling degree (%) Crabgrass (crabgrass [18]) | Growth controlling degree (%) Japanese ribbon wapato (japanese ribbon wapato; active ingredient 250 g/ha) | Growth controlling degree (%) Japanese bulrush (japanese bulrush; active ingredient 250 g/ha) | Growth controlling degree (%) Velvetleaf (velvetleaf [19]) | Growth controlling degree (%) Barnyardgrass (barnyardgrass [8]; active ingredient 250 g/ha) | other results
CCOC(=O)N(C)C(c1cnccc1C(F)(F)F)c1cccc2ccccc12 (stereo not shown) [I-54] | 80% | 30% | 50% | 50% | 50% | 50% | 95% | 95% | 90% | – | – | – | – | – | – | – | – | – | – | – | Growth controlling degree (%) Rice (rice (var. Nihonbare); active ingredient 500 g/ha): 20%; Growth controlling degree (%) Japanese ribbon wapato (japanese ribbon wapato; active ingredient 500 g/ha): 0%; Growth controlling degree (%) Japanese bulrush (japanese bulrush; active ingredient 500 g/ha): 70%; Growth controlling degree (%) Barnyardgrass (barnyardgrass [8]; active ingredient 500 g/ha): 100%
CC(C)C(c1cnccc1C(F)(F)F)N(C)C(=O)CC1CCCCC1 (stereo not shown) [I-164] | – | 50% | 60% | 60% | 30% | 50% | 85% | 60% | 80% | 60% | 70% | 10% | 85% | 20% | 20% | 98% | 0% | 98% | 40% | 100% | Growth controlling degree (%) Redroot pigweed (redroot pigweed [13]): 70%; Growth controlling degree (%) Prickly sida (prickly sida [15]): 60%
CC(C)C(c1cnccc1C(F)(F)F)N(C)C(=O)Cc1ccccc1[N+](=O)[O-] (stereo not shown) [I-39] | 80% | 10% | 60% | 50% | 40% | 10% | – | 70% | 90% | 10% | 100% | 10% | 70% | 40% | 50% | 100% | 85% | 95% | 30% | 100% | Growth controlling degree (%) Redroot pigweed (redroot pigweed [13]): 80%; Growth controlling degree (%) Prickly sida (prickly sida [15]): 90%
CC(C)C(c1cnccc1Cl)N(C)C(=O)Cc1cccc(C(F)(F)F)c1 (stereo not shown) [I-68] | 70% | 0% | 10% | 0% | 10% | 0% | 80% | 60% | 70% | – | – | – | – | – | – | – | – | – | – | – | Growth controlling degree (%) Rice (rice (var. Nihonbare); active ingredient 125 g/ha): 10%; Growth controlling degree (%) Japanese ribbon wapato (japanese ribbon wapato; active ingredient 125 g/ha): 50%; Growth controlling degree (%) Japanese bulrush (japanese bulrush; active ingredient 125 g/ha): 70%; Growth controlling degree (%) Barnyardgrass (barnyardgrass [8]; active ingredient 125 g/ha): 95%
CC(C)C(c1cnccc1Cl)N(C)C(=O)Cc1cccc(F)c1F (stereo not shown) [I-72] | 60% | – | 10% | 0% | 20% | 40% | 85% | 70% | 60% | 0% | 80% | – | 60% | 0% | 0% | 70% | – | – | 0% | – | Growth controlling degree (%) Rice (rice (var. Nihonbare); active ingredient 125 g/ha): 0%; Growth controlling degree (%) Japanese ribbon wapato (japanese ribbon wapato; active ingredient 125 g/ha): 50%; Growth controlling degree (%) Japanese bulrush (japanese bulrush; active ingredient 125 g/ha): 70%; Growth controlling degree (%) Barnyardgrass (barnyardgrass [8]; active ingredient 125 g/ha): 90%
CC(C)C(c1cnccc1C(F)(F)F)N(C)C(=O)Cc1ccc(C#N)cc1 (racemic) [I-114] | 60% | 30% | 70% | 80% | 70% | 60% | 70% | 80% | 80% | – | – | 30% | – | – | – | – | 95% | 95% | – | 100% | –
CC(Oc1ccccc1)C(=O)N(C)C(c1cnccc1C(F)(F)F)C(C)C (stereo not shown) [I-119, N-methyl-N-[2-methyl-1-(4-trifluoromethylpyridin-3-yl)propyl]2-phenoxypropionamide] | 50% | 20% | 50% | 60% | 60% | 10% | 10% | 40% | 70% | – | – | – | – | – | – | – | – | – | – | – | Growth controlling degree (%) Rice (rice (var. Nihonbare); active ingredient 500 g/ha): 20%; Growth controlling degree (%) Japanese bulrush (japanese bulrush; active ingredient 500 g/ha): 100%; Growth controlling degree (%) Barnyardgrass (barnyardgrass [8]; active ingredient 500 g/ha): 98%
